Measurements from patent US20240254547A1, “HIGHLY ACCURATE […]” (KAO CORPORATION, priority 2018, published 2024).

Test system: Genomic DNA from TA100 strain of Salmonella typhimurium (S. typhimurium) LT-2
Assay: Genomic mutation analysis of mutagen-exposed TA100 strain by sequencing with consensus read sequences considering complementary strands
Assay type: cell-based
Details: ENU group
Description: Exposure of cells to ENU was performed in accordance with the pre-incubation method of the Ames test (K. Mortelmans et al. Mutat. Res.—Fundam. Mol. Mech. Mutagen. 455:29-60, 2000). TA100 strain was seeded in 2 mL of Nutrient Broth No. 2 (produced by Oxoid Limited), and subjected to shaking culture at 37° C. and 180 rpm for 4 hours to afford pre-culture solution with an O.D.660 value of 1.0 or higher. ENU (produced by Sigma-Aldrich Co. LLC.) was diluted with dimethylsulfoxide (DMSO; produced by Wako Pure Chemical Industries, Ltd.). Into test tubes, 100 μL of the ENU solution, 500 μL of 0.1 M phosphate buffer, and 100 μL of the pre-culture solution were added (amount of ENU: 62.5, 125, 250, 500, and 1,000 μg/tube), and the resultants were subjected to shaking culture at 100 rpm in a water bath at 37° C. for 20 minutes (ENU group). For a control group, 100 μL of solvent (DMSO) was added instead of the ENU solution. After shaking culture for 20 minutes, the test tubes each containing a culture solution were taken out of the water bath, and 50 μL of each culture solution was added to 2 mL of Nutrient Broth solution aliquoted in advance, and the resultant was further cultured in an incubator at 37° C. and 180 rpm for 14 hours, from which the bacterial suspensions were then collected and centrifuged at 7,500 rpm for 5 minutes, and the supernatants were removed to collect the bacterial cells.
From the bacterial cells obtained in 1) (control group and ENU group), total DNA was collected by using a DNeasy Blood & Tissue Kit (produced by QIAGEN) in accordance with the recommended protocol. The double-stranded DNA concentration of each DNA sample obtained was measured by using a Qubit3.0 Fluorometer (produced by Thermo Fisher Scientific) with a Qubit™ dsDNA BR Assay Kit attached thereto.
From each DNA sample (control group and ENU group) after being subjected to concentration measurement in 2), a plurality of samples each of which was to give 100 ng of DNA were prepared, and each sample was fragmented into pieces having a length of approximately 350 bp on average by using a DNA Shearing System ME220 (produced by Covaris Inc.) in accordance with the recommended protocol. The fragmented DNA obtained was subjected to library preparation by using a TruSeq Nano DNA Library Prep Kit (produced by Illumina, Inc., hereinafter abbreviated as TruSeq) in accordance with the recommended protocol.
In library preparation, the DNA fragments obtained were each labeled with adapter sequences each including a label sequence at a terminal, as described in Example 1. The resultant was subjected to PCR under different conditions listed in Table 1 to prepare libraries for sequencing, thus preparing labeled libraries for sequencing with different conditions. Adapter sequences attached to the TruSeq from Illumina, Inc. were used. […] Thus, one of two adapters was bound to each fragment in each library. […] Each of the resulting ligation reaction solutions was purified in accordance with the recommended protocol, and then subjected to concentration measurement for ligation products by using a High Sensitivity D5000 Kit in an Agilent 4200 TapeStation (produced by Agilent Technologies). […] The mixed solution obtained was subjected to purification through PCR in accordance with the recommended protocol. To adjust difference in amount of input DNA in PCR, each sample was amplified through PCR cycles the number of which is shown in Table 1 to adjust the amount of DNA in the library.
Each of the libraries prepared in 3) was subjected to sequencing by using a HiSeq 2500 (produced by Illumina, Inc.), where the read length was set to 2*125 bp for Library Nos. 1 to 8 shown in Table 1, and to 2*100 bp for Library Nos. 9 to 14. Sequencing data of approximately 10 Gbp were acquired on average per library.
Raw read sequences acquired through sequencing were edited and subjected to mutation analysis in accordance with the analysis flow illustrated above in Schematic Diagram 4. […]

Compound: CCN(N=O)C(N)=O [ENU, ethylnitrosourea]
- GC to AT mutation frequency (10 Gbp sequencing data, Library No. 1, PCR input DNA 20000 amol): 10.48 /10^5 bp
- GC to AT mutation frequency (10 Gbp sequencing data, Library No. 4, PCR input DNA 2500 amol): 37.70 /10^5 bp
- GC to AT mutation frequency (10 Gbp sequencing data, Library No. 5, PCR input DNA 1250 amol): 46.50 /10^5 bp
- GC to AT mutation frequency (10 Gbp sequencing data, Library No. 6, PCR input DNA 625 amol): 55.30 /10^5 bp
- GC to AT mutation frequency (10 Gbp sequencing data, Library No. 7, PCR input DNA 313 amol): 56.57 /10^5 bp
- GC to AT mutation frequency (10 Gbp sequencing data, Library No. 8, PCR input DNA 156 amol): 60.42 /10^5 bp
- GC to AT mutation frequency (10 Gbp sequencing data, Library No. 9, PCR input DNA 156 amol): 61.01 /10^5 bp
- GC to AT mutation frequency (10 Gbp sequencing data, Library No. 10, PCR input DNA 78 amol): 63.62 /10^5 bp
- GC to AT mutation frequency (10 Gbp sequencing data, Library No. 11, PCR input DNA 39 amol): 63.38 /10^5 bp
- GC to AT mutation frequency (10 Gbp sequencing data, Library No. 12, PCR input DNA 20 amol): 63.89 /10^5 bp
- GC to AT mutation frequency (10 Gbp sequencing data, Library No. 13, PCR input DNA 10 amol): 63.35 /10^5 bp
- GC to AT mutation frequency (10 Gbp sequencing data, Library No. 14, PCR input DNA 5 amol): 60.05 /10^5 bp
- Frequency of GC→AT mutation compared with the other mutation patterns (10 Gbp sequencing data, each library): highest
- Relative mutation frequency to 20 amol (GC to AT) (Library No. 1, PCR input DNA 20000 amol): 16.41
- Relative mutation frequency to 20 amol (GC to AT) (Library No. 4, PCR input DNA 2500 amol): 59.01
- Relative mutation frequency to 20 amol (GC to AT) (Library No. 5, PCR input DNA 1250 amol): 72.79
- Relative mutation frequency to 20 amol (GC to AT) (Library No. 6, PCR input DNA 625 amol): 86.56
- Relative mutation frequency to 20 amol (GC to AT) (Library No. 7, PCR input DNA 313 amol): 88.55
- Relative mutation frequency to 20 amol (GC to AT) (Library No. 8, PCR input DNA 156 amol): 94.57
- Relative mutation frequency to 20 amol (GC to AT) (Library No. 9, PCR input DNA 156 amol): 95.50
- Relative mutation frequency to 20 amol (GC to AT) (Library No. 10, PCR input DNA 78 amol): 99.59
- Relative mutation frequency to 20 amol (GC to AT) (Library No. 11, PCR input DNA 39 amol): 99.20
- Relative mutation frequency to 20 amol (GC to AT) (Library No. 12, PCR input DNA 20 amol (reference)): 100.00
- Relative mutation frequency to 20 amol (GC to AT) (Library No. 13, PCR input DNA 10 amol): 99.16
- Relative mutation frequency to 20 amol (GC to AT) (Library No. 14, PCR input DNA 5 amol): 94.00
